Measurements published in publication PMC5641330, “Prediction of a Therapeutic Dose for Buagafuran, a Potent Anxiolytic Agent by Physiologically Based Pharmacokinetic/Pharmacodynamic Modeling Starting from Pharmacokinetics in Rats and Human” (Frontiers in Pharmacology, 2017).
Where two headings read alike, the source gives them in different places.

Legend:
[1] = Clearance prediction from incubation with human liver microsomes; assay type: in vitro ADME
Description: (§1) Drug disappearance t1/2 value measurements in rat and human microsomes were used to determine the in vitro apparent intrinsic clearance value (CLintapp) of buagafuran acquired using Then CLintapp was converted to in vivo intrinsic clearance (CLint).
(§2) Rat or human liver microsomal incubation (0.5 mg/mL) was carried out at 37°C in a mixture of 0.5 mL in 0.05 M Tris–HCl buffer (pH 7.4). Buagafuran (2 μM) was added to the incubation system. The addition of NADPH (1 mM) initiated the reaction, then the reaction was incubated for 0, 10, 20, 30, 45, and 60 min. The equal volume of acetonitrile containing the IS (10 ng/mL) was added to stop the reaction. The mixtures were centrifuged at 16000 g for 5 min and the supernatants were determined using LC-MS/MS method.
(§3) The natural log (In) of buagafuran concentration versus time was plotted and the slope of the best fit line of was determined by the data (k). This was converted into in vitro t1/2 where t1/2 = In 2/k. CLintapp was calculated by the following equation: […]
(§4) Where M is the microsomal protein concentration in the incubation. CLint by liver was calculated from equation 2:
(§5) (2) CLint=CLint(app)×mgmicrosome/gliver×liverweight(g)/bodyweight(kg)
(§6) Where a value of 45 mg of protein per gram of liver tissue was used for both rat and human, and a liver weight of 40 and 21 g per kg were applied to rat and human, respectively ([Hosea et al., 2009]). […]

P-gp = test system: P-gp; set-up: method as in Li, 2010; settings: ref Li, 2010; cited from earlier work
[2] = Clearance prediction from incubation with rat liver microsomes; assay type: in vitro ADME
Description: as §1, §2, §3, §4, §5, §6

CYP3A and CYP2E = test system: CYP3A and CYP2E; set-up: method as in Zhang, 1997; Li et al., 2001; Li, 2010; settings: ref Zhang, 1997, Li et al., 2001, 2010; cited from earlier work
[3] = Clinical plasma PK in healthy volunteers after oral dosing (observed); assay type: in vivo; settings: male, human; for AUC(0-t): read-out: AUC0-t Observed; for AUC(0-inf): read-out: AUC0-∞ Observed; for MRT inf: read-out: MRT(0-∞) Observed
Description: The study protocol was approved by the Ethics Committee of Peking Union Medical College Hospital approved (Permission Number: 09103), and the Informed Consent Form was signed by all subjects before the study. PVP formulation of buagafuran was packed into capsules for oral administration. In a study of open-label, randomized, cross-over and dose-ranging design, 12 healthy male Chinese volunteers (aged 22–40 with weighing 55–70 kg) received a single oral dose of buagafuran (30, 60, and 120 mg). Serial blood samples were collected up to 48 h. In a phase I, randomized and multiple oral dose study, 5 healthy male Chinese volunteers (aged 20–31 with weighing 55–73 kg) received once-daily oral dose of 60 mg buagafuran for 7 days. On day 1 and 7, plasma samples were collected at the designed time points. Detailed clinical data was previously reported ([Yang et al., 2011], [2013]).
Pharmacokinetic parameters were determined with a non-compartmental model using WinNonlin v 6.0 (Pharsight Corporation, Mountain View, CA, United States). The area under the compound concentration versus time curve from time zero to the last time point (AUC0-t) and extrapolated to infinity (AUC0-∞) and the peak plasma concentration (Cmax) were calculated.

[4] = set-up: method as in Zhang, 1997; Li et al., 2001; Li, 2010; settings: human liver microsomes, ref Zhang, 1997, Li et al., 2001, 2010; cited from earlier work
[5] = Plasma protein binding by equilibrium dialysis, human plasma; assay type: in vitro ADME; settings: 0.5–2 μg/mL
Description: The plasma protein binding of buagafuran (0.5–2 μg/mL) was investigated by equilibrium dialysis. Aliquots (0.5 mL) of plasma were dialyzed against 10 mL phosphate buffered saline containing a ^3H-buagafuran tracer over a membrane with an 8,000- to 12,000-dalton molecular weight cutoff. Dialysis experiment was performed for 60 h at 4 °C. After the dialysis period, 100 μL of the PBS fraction (containing unbound buagafuran) and 100 μL of the plasma fraction (containing both bound and unbound drug) was taken for liquid scintillation counting. The ratio of buagafuran concentration in buffer to that in plasma was applied to calculate the unbound fraction (Fu).

[6] = oral, 60 mg, multiple dosing (60 mg once daily, 7 days)/first dosing
[7] = oral, 60 mg, multiple dosing (60 mg once daily, 7 days)/last dosing
[8] = po, 30 mg, oral single dosing 30 mg
[9] = po, 60 mg, oral single dosing 60 mg
[10] = po, 120 mg, oral single dosing 120 mg

CCCCC1=CCC[C@@]2(C)CC[C@@H]3C[C@]12OC3(C)C [buagafuran]
CLhep predicted ([1]; from human liver microsomes, well-stirred model): 7.7 mL/min/kg
microsomal CLint at 2 μM ([1]; pH 7.4, human liver microsomes 0.5 mg/mL, 2 μM, read-out: in vitro CLintapp): 22 µL/min/mg
substrate of the transporter P-gp (P-gp): substrate of the transporter P-gp
CLhep predicted ([2]; from rat liver microsomes, well-stirred model): 28.0 mL/min/kg
microsomal CLint at 2 μM ([2]; pH 7.4, rat liver microsomes 0.5 mg/mL, 2 μM, read-out: in vitro CLintapp): 33 µL/min/mg
major enzymes involved in its metabolism in vitro (CYP3A and CYP2E): CYP3A and CYP2E
Cmax [3, 6]: 27.1 ng/mL
AUC(0-t) [3, 6]: 99.4 ng·h/mL
AUC(0-inf) [3, 6]: 113 ng·h/mL
MRT inf [3, 6]: 9.94 h
Tmax ([3]; oral, 60 mg, multiple dosing (60 mg once daily, 7 days)/first dosing, read-out: Tmax Observed): 2 h
Cmax [3, 7]: 32 ng/mL
AUC(0-t) [3, 7]: 163 ng·h/mL
AUC(0-inf) [3, 7]: 231 ng·h/mL
MRT inf [3, 7]: 20.9 h
Tmax ([3]; oral, 60 mg, multiple dosing (60 mg once daily, 7 days)/last dosing, read-out: Tmax Observed): 3 h
Cmax [3, 8]: 19.5 ng/mL
AUC(0-t) [3, 8]: 47.6 ng·h/mL
AUC(0-inf) [3, 8]: 54.9 ng·h/mL
MRT inf [3, 8]: 3.33 h
Tmax ([3]; po, 30 mg, oral single dosing 30 mg, read-out: Tmax Observed): 1 h
Cmax [3, 9]: 39.8 ng/mL
AUC(0-t) [3, 9]: 92.4 ng·h/mL
AUC(0-inf) [3, 9]: 95.4 ng·h/mL
MRT inf [3, 9]: 4.87 h
Tmax ([3]; po, 60 mg, oral single dosing 60 mg, read-out: Tmax Observed): 1 h
Cmax [3, 10]: 81.6 ng/mL
AUC(0-t) [3, 10]: 246 ng·h/mL
AUC(0-inf) [3, 10]: 272 ng·h/mL
MRT inf [3, 10]: 5.28 h
Tmax ([3]; po, 120 mg, oral single dosing 120 mg, read-out: Tmax Observed): 1 h
Tmax ([3]; po, oral 30–120 mg, read-out: time to peak plasma concentration (Tmax)): 0.5 to 2 h
extraction ratio [4]: about 50%
concentration dependence of plasma protein binding ([5]; human plasma): no evident concentration-dependent binding
fraction unbound at 60 h ([5]; human, plasma, equilibrium dialysis, read-out: Fup human (unbound fraction in human plasma)): 0.04
